Results published in patent US11207325B2, “Triazolopyrimidine compounds and uses thereof” (Novartis AG, priority 2014, dated 2021).

Test system: H3K27 methylation in G401 cell
Assay: ELISA (H3K27 methylation) assay
Format: cell-based
Details: Homo sapiens, G-401; ELISA Qualified assay (H3K27 methylation); read-out: (c) IC50 (μM), ELISA Qualified
Description: ELISA (H3K27 Methylation) Assay

Row | IC50 | SMILES
1 | 0.445 µM | Fc1ccc(-c2cnc(NCc3c(F)ccc4c3CCO4)n3cnnc23)c(Cl)c1 [Example 157, 8-(2-chloro-4-fluorophenyl)-N-((5-fluoro-2,3-dihydrobenzofuran-4-yl)methyl)-[1,2,4]triazolo[4,3-c]pyrimidin-5-amine]
2 | 0.003 µM | Cn1cc(-c2cnc(NCc3c(F)ccc4c3CCO4)n3cnnc23)c(C(F)F)n1 [Example 200, 8-(3-(difluoromethyl)-1-methyl-1H-pyrazol-4-yl)-N-((5-fluoro-2,3-dihydrobenzofuran-4-yl)methyl)-[1,2,4]triazolo[4,3-c]pyrimidin-5-amine]
3 | 0.0054 µM | FCc1ncccc1-c1cnc(NCc2c(F)ccc3c2CCO3)n2cnnc12 [Example 193, N-((5-fluoro-2,3-dihydrobenzofuran-4-yl)methyl)-8-(2-(fluoromethyl)pyridin-3-yl)-[1,2,4]triazolo[4,3-c]pyrimidin-5-amine]
4 | 0.0044 µM | Cc1c(-c2cnc(NCc3c(F)ccc4c3CCO4)n3cnnc23)cnn1C [Example 172, 8-(1,5-dimethyl-1H-pyrazol-4-yl)-N-((5-fluoro-2,3-dihydrobenzofuran-4-yl)methyl)-[1,2,4]triazolo[4,3-c]pyrimidin-5-amine]
5 | 0.0067 µM | Cc1nn(CCO)c(C)c1-c1cnc(NCc2c(F)ccc3c2CCO3)n2cnnc12 [Example 158, 2-(4-(5-(((5-fluoro-2,3-dihydrobenzofuran-4-yl)methyl)amino)-[1,2,4]triazolo[4,3-c]pyrimidin-8-yl)-3,5-dimethyl-1H-pyrazol-1-yl)ethanol]
6 | 0.0382 µM | Cc1cnn(-c2cnc(NCc3c(F)ccc4c3CCO4)n3cnnc23)c1 [Example 239, N-((5-fluoro-2,3-dihydrobenzofuran-4-yl)methyl)-8-(4-methyl-1H-pyrazol-1-yl)-[1,2,4]triazolo[4,3-c]pyrimidin-5-amine]
7 | 0.0044 µM | Cc1nccc(-c2cnc(NCc3c(F)ccc4c3CCO4)n3cnnc23)c1C [Example 177, 8-(2,3-dimethylpyridin-4-yl)-N-((5-fluoro-2,3-dihydrobenzofuran-4-yl)methyl)-[1,2,4]triazolo[4,3-c]pyrimidin-5-amine]
8 | 0.0167 µM | Fc1ccc2c(c1CNc1ncc(-c3cnccn3)c3nncn13)CCO2 [Example 205, N-((5-fluoro-2,3-dihydrobenzofuran-4-yl)methyl)-8-(pyrazin-2-yl)-[1,2,4]triazolo[4,3-c]pyrimidin-5-amine]
9 | 0.0148 µM | Fc1ccc2c(c1CNc1ncc(-c3cnn(C4CC4)c3)c3nncn13)CCO2 [Example 150, 8-(1-cyclopropyl-1H-pyrazol-4-yl)-N-((5-fluoro-2,3-dihydrobenzofuran-4-yl)methyl)-[1,2,4]triazolo[4,3-c]pyrimidin-5-amine]
10 | 0.0014 µM | Fc1ccc2c(c1CNc1ncc(-n3ccnc3)c3nncn13)CCO2 [Example 240, N-((5-fluoro-2,3-dihydrobenzofuran-4-yl)methyl)-8-(1H-imidazol-1-yl)-[1,2,4]triazolo[4,3-c]pyrimidin-5-amine]
11 | 0.0106 µM | CCn1nccc1-c1cnc(NCc2c(F)ccc3c2CCO3)n2cnnc12 [Example 143, 8-(1-ethyl-1H-pyrazol-5-yl)-N-((5-fluoro-2,3-dihydrobenzofuran-4-yl)methyl)-[1,2,4]triazolo[4,3-c]pyrimidin-5-amine]
12 | 0.0358 µM | Fc1ccc2c(c1CNc1ncc(-c3ccccn3)c3nncn13)CCO2 [Example 231, N-((5-fluoro-2,3-dihydrobenzofuran-4-yl)methyl)-8-(pyridin-2-yl)-[1,2,4]triazolo[4,3-c]pyrimidin-5-amine]
13 | 0.0232 µM | Cn1cc(-c2cnc(NCc3c(F)ccc4c3CCO4)n3cnnc23)c(C(F)(F)F)n1 [Example 170, N-((5-fluoro-2,3-dihydrobenzofuran-4-yl)methyl)-8-(1-methyl-3-(trifluoromethyl)-1H-pyrazol-4-yl)-[1,2,4]triazolo[4,3-c]pyrimidin-5-amine]
14 | 0.0045 µM | Cc1nc(OC2CC2)ncc1-c1cnc(NCc2c(F)ccc3c2CCO3)n2cnnc12 [Example 225, 8-(2-cyclopropoxy-4-methylpyrimidin-5-yl)-N-((5-fluoro-2,3-dihydrobenzofuran-4-yl)methyl)-[1,2,4]triazolo[4,3-c]pyrimidin-5-amine]
15 | 0.0409 µM | OCc1ncccc1-c1cnc(NCc2c(F)ccc3c2C(O)CO3)n2cnnc12 (stereo not shown) [Example 243, 5-fluoro-4-(((8-(2-(hydroxymethyl)pyridin-3-yl)-[1,2,4]triazolo[4,3-c]pyrimidin-5-yl)amino)methyl)-2,3-dihydrobenzofuran-3-ol]
16 | 0.192 µM | Fc1ccc2c(c1CNc1ncc(F)c3nncn13)CCO2 [Example 235, 8-fluoro-N-((5-fluoro-2,3-dihydrobenzofuran-4-yl)methyl)-[1,2,4]triazolo[4,3-c]pyrimidin-5-amine]

Further lines, the compound ahead of its results:

Row | SMILES | IC50
17 | NC(=O)c1ccccc1-c1cnc(NCc2c(F)ccc3c2CCO3)n2cnnc12 [Example 122, 2-(5-(((5-fluoro-2,3-dihydrobenzofuran-4-yl)methyl)amino)-[1,2,4]triazolo[4,3-c]pyrimidin-8-yl)benzamide] | 0.135 µM
18 | CS(=O)(=O)c1ccc(-c2cnc(NCc3c(F)ccc4c3CCO4)n3cnnc23)cn1 [Example 56, N-((5-fluoro-2,3-dihydrobenzofuran-4-yl)methyl)-8-(6-(methylsulfonyl)pyridin-3-yl)-[1,2,4]triazolo[4,3-c]pyrimidin-5-amine] | 0.0493 µM
19 | Cc1cc(-c2cnc(NCc3cccc4c3CCO4)n3cnnc23)cnc1S(C)(=O)=O [Example 70, N-((2,3-dihydrobenzofuran-4-yl)methyl)-8-(5-methyl-6-(methylsulfonyl)pyridin-3-yl)-[1,2,4]triazolo[4,3-c]pyrimidin-5-amine] | 0.0839 µM
20 | OCCOc1ccc(-c2cnc(NCc3cccc4c3CCO4)n3cnnc23)cc1 [Example 38, 2-(4-(5-(((2,3-dihydrobenzofuran-4-yl)methyl)amino)-[1,2,4]triazolo[4,3-c]pyrimidin-8-yl)phenoxy)ethanol] | 0.202 µM
21 | CS(=O)(=O)c1ccc(-c2cnc(NCc3cccc4c3CCO4)n3cnnc23)cc1 [Example 12, N-((2,3-dihydrobenzofuran-4-yl)methyl)-8-(4-(methylsulfonyl)phenyl)-[1,2,4]triazolo[4,3-c]pyrimidin-5-amine] | 0.0176 µM
22 | Fc1ccccc1-c1cnc(NCc2c(F)ccc3c2CCO3)n2cnnc12 [Example 94, N-((5-fluoro-2,3-dihydrobenzofuran-4-yl)methyl)-8-(2-fluorophenyl)-[1,2,4]triazolo[4,3-c]pyrimidin-5-amine] | 0.0257 µM
23 | COCc1cc(-c2cnc(NCc3cccc4c3CCO4)n3cnnc23)cnc1C [Example 137, N-((2,3-dihydrobenzofuran-4-yl)methyl)-8-(5-(methoxymethyl)-6-methylpyridin-3-yl)-[1,2,4]triazolo[4,3-c]pyrimidin-5-amine] | 0.226 µM
24 | CN(C)S(=O)(=O)c1ccc(-c2cnc(NCc3cccc4c3CCO4)n3cnnc23)cc1 [Example 15, 4-(5-(((2,3-dihydrobenzofuran-4-yl)methyl)amino)-[1,2,4]triazolo[4,3-c]pyrimidin-8-yl)-N,N-dimethylbenzenesulfonamide] | 0.0198 µM
25 | COCCn1nc(C)c(-c2cnc(NCc3cccc4c3CCO4)n3cnnc23)c1C [Example 66, N-((2,3-dihydrobenzofuran-4-yl)methyl)-8-(1-(2-methoxyethyl)-3,5-dimethyl-1H-pyrazol-4-yl)-[1,2,4]triazolo[4,3-c]pyrimidin-5-amine] | 0.0803 µM
26 | O=C1OCCN1c1ccc(-c2cnc(NCc3cccc4c3CCO4)n3cnnc23)cn1 [Example 117, 3-(5-(5-(((2,3-dihydrobenzofuran-4-yl)methyl)amino)-[1,2,4]triazolo[4,3-c]pyrimidin-8-yl)pyridin-2-yl)oxazolidin-2-one] | 0.48 µM
27 | COc1cc(Cl)c(-c2cnc(NCc3c(F)ccc4c3CCO4)n3cnnc23)cn1 [Example 138, 8-(4-chloro-6-methoxypyridin-3-yl)-N-((5-fluoro-2,3-dihydrobenzofuran-4-yl)methyl)-[1,2,4]triazolo[4,3-c]pyrimidin-5-amine] | 0.0072 µM
28 | Cc1cc(-c2cnc(NCc3cccc4c3CCO4)n3cnnc23)ccc1C(=O)N(C)C [Example 49, 4-(5-(((2,3-dihydrobenzofuran-4-yl)methyl)amino)-[1,2,4]triazolo[4,3-c]pyrimidin-8-yl)-N,N,2-trimethylbenzamide] | 0.366 µM
29 | CS(=O)(=O)c1ccc(-c2cnc(NCc3cccc4c3CCO4)n3cnnc23)cn1 [Example 28, N-((2,3-dihydrobenzofuran-4-yl)methyl)-8-(6-(methylsulfonyl)pyridin-3-yl)-[1,2,4]triazolo[4,3-c]pyrimidin-5-amine] | 0.415 µM
30 | CS(=O)(=O)Nc1ccc(-c2cnc(NCc3c(F)ccc4c3CCO4)n3cnnc23)cc1F [Example 39, N-(2-fluoro-4-(5-(((5-fluoro-2,3-dihydrobenzofuran-4-yl)methyl)amino)-[1,2,4]triazolo[4,3-c]pyrimidin-8-yl)phenyl)methanesulfonamide] | 0.0227 µM
31 | Fc1ccc2c(c1CNc1ncc(-c3ccncc3)c3nncn13)CCO2 [Example 45, N-((5-fluoro-2,3-dihydrobenzofuran-4-yl)methyl)-8-(pyridin-4-yl)-[1,2,4]triazolo[4,3-c]pyrimidin-5-amine] | 0.0086 µM
32 | CS(=O)(=O)c1cccc(-c2cnc(NCc3cccc4c3CCO4)n3cnnc23)c1 [Example 27, N-((2,3-dihydrobenzofuran-4-yl)methyl)-8-(3-(methylsulfonyl)phenyl)-[1,2,4]triazolo[4,3-c]pyrimidin-5-amine] | 0.365 µM
33 | CC(C)(O)c1ccc(-c2cnc(NCc3cccc4c3CCO4)n3cnnc23)cn1 [Example 99, 2-(5-(5-(((2,3-dihydrobenzofuran-4-yl)methyl)amino)-[1,2,4]triazolo[4,3-c]pyrimidin-8-yl)pyridin-2-yl)propan-2-ol] | 0.107 µM
34 | Cc1nc(S(C)(=O)=O)ccc1-c1cnc(NCc2c(F)ccc3c2CCO3)n2cnnc12 [Example 139, N-((5-fluoro-2,3-dihydrobenzofuran-4-yl)methyl)-8-(2-methyl-6-(methylsulfonyl)pyridin-3-yl)-[1,2,4]triazolo[4,3-c]pyrimidin-5-amine] | 0.0016 µM
